Columns and labels:
[1] = test system: Salmonella typhimurium tester strains TA98, TA100, TA1535, and TA1537; experiment: Bacterial Reverse Mutation Assay (Salmonella); format: cell-based
Procedure: The objective of this study was to evaluate C2E2 for its ability to induce reverse mutations at the histidine locus in Salmonella typhimurium tester strains TA98, TA100, TA1535, and TA1537, and at the tryptophan locus of Escherichia coli (E. coli) strain WP2uvrA in the presence or absence of an exogenous mammalian metabolic activation system (S9).
C2E2 was evaluated in an initial mutagenicity assay in all five tester strains at dose levels of 5.00, 16.0, 50.0, 160, 500, 1600, and 5000 μg/plate with and without S9. C2E2 was from Lot 050 obtained using Method 2. C2E2 was prepared in Cell Culture Grade Water vehicle and formed a transparent colorless solution. […] The reductions in the numbers of revertant colonies and the enhanced background lawn growth are indicative of C2E2 treatment-related toxicity. With exception to the enhanced background lawn in TA1537 without S9, all other background lawns in all strains, with and without S9, were normal indicating there was appropriate bacterial growth during treatment to express a mutagenic event. There were no relevant increases in the numbers of revertant colonies observed at any dose level with any strain in the absence or presence of S9 metabolic activation.

[2] = test system: ^241Am contaminated rats; experiment: C2E2 single dose ^241Am decorporation in rats (IM contamination); format: in vivo, Sprague Dawley rat; conditions: for Cage Wash ^241Am / Feces ^241Am / Liver burden / Total Decorporation / Urine ^241Am: single dose 24 h after IM ^241Am, 7 days
Procedure: This study was to assess the efficacy of a single oral gavage dose of C2E2 in ^241Am contaminated rats. A 200 μL aliquot was withdrawn from a stock solution of ^241Am nitrate (0.1 mCi in 5 mL 1 M HNO3), evaporated to dryness, dissolved in concentrated HNO3 (15 M, 5 mL) then evaporated to dryness and dissolved in dilute HNO3 (0.1 M, 8 mL) to form the injection solution. Groups of 4 female Sprague-Dawley rats were contaminated with 250 nCi of ^241Am nitrate by IM injection ([…]) then were administered single doses of C2E2 by gavage at 200, 600, or 1000 mg/kg under ad lib feeding conditions utilizing a 10% w/w solution in sterile water (dose volumes were 2, 6, and 10 mL/kg, for the 200, 600, and 1000 mg/kg doses, respectively). For the fasted component of the study, the animals were fasted 24 hours before treatment then for 2 hours post drug administration. Control groups with ad lib access to food and water were either untreated or administered an IV dose of the calcium salt of DTPA (Ca-DTPA) at 14 mg/kg (target dose volume of 0.7 mL/kg and concentration of 20 mg/mL). Treatment was administered 1 day after contamination. All animals were euthanized 7 days after contamination and the following tissues were collected: liver, both kidneys, both femurs as well as the ipsilateral and the contralateral hind leg muscle tissue and the pelt from the injection site. Urine and feces were collected from the time of contamination through euthanasia. Cage washings were also collected at the end of the study and considered part of total urine collection. Two aliquots (100 μL) of the injection solution were removed and ^241Am gamma activity was determined using radiomatic detection. The average of these standards is the injected dose used for all animals. All tissues and samples were counted in a similar manner. Americium content was expressed as a percentage of the injected dose. Overall recovery of radioactivity across all groups in this study was approximately 90%. […] The primary route by which both DTPA and C2E2 enhanced elimination of ^241Am occurred was by urinary clearance. […] Fecal clearance of ^241Am was not altered by feeding status, an observation that is consistent with the similar liver burden between the two groups at the end of the study. […] As with DTPA, enhanced decorporation by C2E2 occurred through enhanced urinary clearance.
Male and female Sprague Dawley rats (n=4/gender/dose) were administered single oral doses of diethylenetriaminepentaacetic acid diethyl ester (C2E2) by gavage 24 hours after intramuscular contamination with ^241Am(NO3)3 (250 nCi) under ad libitum and fasted conditions. Animals received single oral nominal doses of 200, 600, or 1000 mg/kg C2E2. Untreated animals and animals treated with an intravenous dose of Ca-DTPA ([…]) 24 hours after contamination served as controls; only ad libitum conditions were used for control animals. Total radionuclide decorporation and radionuclide tissue burden were evaluated seven days after contamination.
Male and female Sprague Dawley rats were contaminated with ^241Am(NO3)3 (0.25 μCi) by intramuscular injection (0.1 mL, 0.1 M HNO3) into the right hind leg, under isoflurane anesthesia. Immediately after injection, body weights were recorded (Day 0 weight) and animals were placed in individual metabolic cages.
Approximately eight hours after contamination—and 16 hours before test article administration—rats assigned to the Fasted groups had access to food restricted by removing the food chamber from their metabolic cages and collecting all loose chow from their housing chambers. Food chambers were replaced 1 hour after oral gavage treatment, restoring access to food. At all other times all animals had ad libitum access to food.
Male and female Sprague-Dawley rats assigned to test groups each received a single oral gavage dose of 0, 200, 600, or 1000 mg/kg of C2E2 utilizing a 10% w/w solution in water 24 hours after contamination. […]

[3] = C2E2 200 mg/kg gavage, ad lib, female rats
[4] = C2E2 200 mg/kg gavage, fasted, female rats
[5] = C2E2 600 mg/kg gavage, ad lib, female rats
[6] = C2E2 600 mg/kg gavage, fasted, female rats
[7] = C2E2 1000 mg/kg gavage, ad lib, female rats
[8] = C2E2 1000 mg/kg gavage, fasted, female rats

CCOC(=O)CN(CCN(CCN(CC(=O)O)CC(=O)OCC)CC(=O)O)CC(=O)O [C2E2, 6,9-bis(carboxymethyl)-3-(2-ethoxy-2-oxoethyl)-11-oxo-12-oxa-3,6,9-triazatetradecan-1-oic acid]
Dose level with reductions in mean numbers of revertant colonies (toxicity) ([1]; TA100, TA1535, TA1537, without S9): 5000 μg/plate
Dose level with reductions in mean numbers of revertant colonies (toxicity) ([1]; TA1535, TA1537, with S9): ≥ 500 μg/plate
Mutagenicity (reverse mutations at the histidine locus) ([1]; up to 5000 μg/plate, with and without S9): negative
Cage Wash ^241Am [2, 3]: 1.8 ± 0.5%
Feces ^241Am [2, 3]: 5.9 ± 0.8%
Liver burden [2, 3]: 17.7 ± 2.1 % injected
Total Decorporation [2, 3]: 14.4 ± 0.7 % injected
Urine ^241Am [2, 3]: 6.7 ± 1.5%
Cage Wash ^241Am [2, 4]: 1.3 ± 0.5%
Feces ^241Am [2, 4]: 4.7 ± 2.1%
Liver burden [2, 4]: 20.9 ± 3.5 % injected
Total Decorporation [2, 4]: 14.3 ± 3.2 % injected
Urine ^241Am [2, 4]: 8.4 ± 1.3%
Cage Wash ^241Am [2, 5]: 2.2 ± 0.8%
Feces ^241Am [2, 5]: 7.7 ± 2.0%
Liver burden [2, 5]: 18.6 ± 4.5 % injected
Total Decorporation [2, 5]: 22.3 ± 3.1 % injected
Urine ^241Am [2, 5]: 12.4 ± 1.3%
Cage Wash ^241Am [2, 6]: 2.6 ± 0.8%
Feces ^241Am [2, 6]: 7.3 ± 1.5%
Liver burden [2, 6]: 18.9 ± 2.3 % injected
Total Decorporation [2, 6]: 24.2 ± 3.3 % injected
Urine ^241Am [2, 6]: 14.3 ± 2.9%
Cage Wash ^241Am [2, 7]: 3.4 ± 0.3%
Feces ^241Am [2, 7]: 6.9 ± 1.7%
Liver burden [2, 7]: 14.5 ± 1.5 % injected
Total Decorporation [2, 7]: 23.8 ± 3.0 % injected
Urine ^241Am [2, 7]: 13.5 ± 1.7%
Cage Wash ^241Am [2, 8]: 4.5 ± 0.7%
Feces ^241Am [2, 8]: 7.1 ± 1.3%
Liver burden [2, 8]: 13.7 ± 3.1 % injected
Total Decorporation [2, 8]: 31.3 ± 5.5 % injected
Urine ^241Am [2, 8]: 19.8 ± 3.9%
Efficacy compared with intravenous Ca-DTPA ([2]; C2E2 1000 mg/kg single oral dose vs Ca-DTPA 13.3 mg/kg iv, no equivalence analysis): comparable, in terms of efficacy, to an intravenous dose of Ca-DTPA (13.3 mg/kg)
Effect of fasting on efficacy of the C2E2 dose ([2]; daily urinary and fecal americium, male and female rats): not altered by fasting rats prior to their C2E2 treatment
Skeletal burden vs untreated controls (statistics) ([2]; female rats): not significantly changed by C2E2 treatment
Dose with significantly enhanced decorporation vs untreated controls ([2]; female rats, p<0.001): above 600 mg/kg
^241Am liver burden vs untreated controls (statistics) ([2]; female rats, p<0.01): Only the reduction in burden following the 1000 mg/kg dose was statistically significant
Wound site retention of americium vs untreated controls (statistics) ([2]; male and female rats): did not correspond with a significant change in tissue burden compared to untreated controls at any single C2E2 dose
Dose with significant reduction of estimated skeletal americium burden vs untreated controls ([2]; male rats): ≥ 600 mg/kg
^241Am liver burden vs untreated controls (statistics) ([2]; male rats): significantly reduced compared to untreated controls at doses of 200 mg/kg (p<0.05) and 1000 mg/kg (p<0.001)
Dose with significantly increased total decorporation vs untreated controls ([2]; male rats, p<0.001): ≥ 600 mg/kg

— US9546129B2, “DTPA prodrugs, compositions thereof, and methods of using the same” (priority 2012, dated 2017)
